The source made the active and inactive calls. The rule behind the calls is not given here.

What is called Vmax is the top rate of the reaction or transport when substrate is in excess.

In test [1] the test system is Lactobacillus johnsonii. In words: Inhibition of catalytic activity of His6-tagged Lactobacillus johnsonii N6.2 cinnamoyl esterase LJ0536 expressed in Escherichia coli BL21 (DE3) assessed as reduction in hydrolysis of 4-nitrophenyl butyrate in 4-nitrophenol at 400 uM in presence of 2.5 to 20 mM enzyme pre-incubated for 2 hrs.
Test [2] relates to Lactobacillus johnsonii. Nature of the test: Non-competive inhibition of catalytic activity of His6-tagged Lactobacillus johnsonii N6.2 cinnamoyl esterase LJ0536 expressed in Escherichia coli BL21 (DE3) assessed as substrate Vmax by measuring hydrolysis of 4-nitrophenyl butyrate in 4-nitrophenol at 400 uM pre-incubated for 2 hrs (reference value: 4.094 umol/min/mg).
Test [3] has as its system Lactobacillus johnsonii. In words: Inhibition of catalytic activity of His6-tagged Lactobacillus johnsonii N6.2 cinnamoyl esterase LJ0536 expressed in Escherichia coli BL21 (DE3) assessed as reduction in hydrolysis of 4-nitrophenyl butyrate in 4-nitrophenol pre-incubated for 2 hrs.

For `CC(C(=O)O)c1ccc(-c2ccccc2)c(F)c1` (stereo not drawn), the inhibition result in test [1] is “Active”. Moreover, in test [2], the maximum rate (Vmax) stood at 3.7 µmol/min/mg. In test [3], the inhibition entry was “Dose-dependent effect”.

For the origin of these results see ChEMBL document CHEMBL4414616, “Exhaustive Repertoire of Druggable Cavities at Protein-Protein Interfaces of Known Three-Dimensional Structure” (J Med Chem, 2019).
